# US9963485B2, “Cycloheptapeptide agents for treatment of cancer and obesity diseases” (Hong Kong Baptist University, priority 2012, dated 2018)
# Read-outs that look alike come from different tables or passages of the source. *1 amine or outer side, *2 acyl side, *3 side chain or, on linkers, in order; H or OH if unused. Where a SMILES comes first, the peptide text is derived from it. [ ]: non-standard residue; d: D form. X2 = C[C@@H]1C([C@@H](N[*:1])C(=O)[*:2])[C@H]1C; X1 = C[C@@H]1C([C@H](N[*:1])C(=O)[*:2])[C@H]1C; X3 = CC1C(C)C1C(N[*:1])C(=O)[*:2]; NMeL = CN[CH](CC(C)C)C(=O)O; NMeA = CN[CH](C)C(=O)O; dNMeA = CN[C@H](C)C(=O)O
# Experiments:
# [1] = tested on: oral epidermoid (KB) carcinoma cell line; assay: Cytotoxicity assay (sulforhodamine B), KB; assay type: cell-based, human; details: KB cells; for IC50: 72 hours, read-out: Cytotoxic activity IC50, KB
# Method: (§4) Pure compounds are evaluated against the human cancer cell lines comprising our cytotoxicity screening panel. Cytotoxicity assays involving oral epidermoid (KB), colon (HCT116), prostate (LNCaP), breast (MCF7), Hela (cervical), leukemia (HL-60) melanoma (A375) and lung (A549) carcinoma cell lines, are performed using sulforhodamine B according to established protocols (Zhang et al., Journal of Medicinal Chemistry 2006; 49: 693-708; and Jutiviboonsuk A et al., Phytochemistry 2005; 66: 2745-2751.). KB and A375 cells are maintained in DMEM (Dulbecco's modified Eagle medium) medium. LNCaP and HL60 cells are maintained in RPMI1640 medium with hormone-free 10% heat-activated FBS (fetal bovine serum) supplemented with 0.1 nM testosterone. MCF7 and Hela cells are maintained and assayed in MEME (Minimum Essential Medium Eagle) medium containing 10 mg/L of insulin. HCT116 cells are maintained in McCoy's 5A medium supplemented with 10% fetal bovine serum. A549 cells are maintained in RPMI-1640 medium supplemented with 10% FCS. Serial dilutions of the compounds are prepared using 10% aqueous DMSO as solvent. The 190 μL cell suspension (3×10^4 cells in 1 ml media) is incubated with 10 μL sample solutions, in triplicate, in 96-well tissue culture plate at 37° C. in a humidified atmosphere of 5% CO2 in air for 72 hours. 10 μL 10% aqueous DMSO is used as control group. Then the cells are fixed to plastic substratum by the addition of 100 μL cold 20% aqueous trichloroacetic acid and washing with water after incubation at 4° C. for 30 min. After staining cells with 100 μL of 0.4% sulforhodamine B in 1% aqueous AcOH for 30 min, unbound dye is removed by rinsing with 1% aqueous AcOH. The bound dye is solubilized with 200 μL 10 mM unbuffered Tris base, pH 10, and the optical density is measured at 515 nm using an ELISA plate reader. The average data are expressed as a percentage, relative to the control. The IC50 values, the dose that inhibit cell growth by 50%, are calculated using nonlinear regression analysis (percent survival versus concentration).
# [2] = tested on: lung (A549) carcinoma cell line; assay: cells; assay type: cell-based, human; details: for IC50: 72 hours, read-out: Cytotoxic activity IC50, A549; for IC90: read-out: Cytotoxic activity IC90, A549
# Method: as §4
# [3] = tested on: breast (MCF7) carcinoma cell line; assay: cells; assay type: cell-based, human; details: for IC50: 72 hours, read-out: Cytotoxic activity IC50, MCF7; for IC90: read-out: Cytotoxic activity IC90, MCF7
# Method: as §4
# [4] = tested on: panel of cancer cell lines comprising KB, HCT116, LNCaP, A549, MCF7, HL60, Hela and A375; details: for IC50: read-out: Cell killing activity, IC50 values range over the panel, range over panel of human cancer cell lines
# [5] = tested on: colon (HCT116) carcinoma cell line; assay: Cytotoxicity assay (sulforhodamine B), HCT116; details: read-out: Cytotoxic activity IC50, HCT116; HCT116 cells, 72 hours
# Method: as §4
# [6] = tested on: lung cancer cell line (A549); assay: Hollow fiber in vivo test, A549; set-up: species or system mouse
# Method: (§1) Hollow fiber tests are well known in the art for providing preliminary indications of therapeutic efficacy (Mi et al. J. Nat. Prod. 2002, 65: 842-850). In hollow fiber tests, human tumor cell lines currently employed in cell cultures are grown inside semipermeable hollow fibers to form heterogeneous solid tumor models. […] By evaluating the test compound's inhibition of tumor cell growth versus the toxic response in the host, a preliminary estimate of therapeutic efficacy is provided in a cost- and time effective manner.
# [7] = tested on: colon cancer cell line (HCT116); assay: Hollow fiber in vivo test, HCT116; set-up: species or system mouse
# Method: as §1
# [8] = tested on: breast cancer cell line (MCF7); assay: Hollow fiber in vivo test, MCF7; set-up: species or system mouse
# Method: as §1
# [9] = tested on: melanoma cancer cell line (A375); assay: Hollow fiber in vivo test, A375; set-up: species or system mouse
# Method: as §1
# [10] = tested on: cervical cancer cell line (Hela); assay: Hollow fiber in vivo test, Hela; set-up: species or system mouse
# Method: as §1
# [11] = tested on: HCT116-tumor xenograft; assay: HCT116 xenograft mouse model; assay type: in vivo; details: for Inhibition of HCT116 tumor growth (excised tumor weights): every other day for 21 days
# Method: The treatment started on the 6th day when the HCT116-tumor reached approximately 100 mm^3 (L×W×W). […] All mice died for the maytansine group after the initial two treatments at the dose of 0.1 mg/kg, indicating the highly toxicity of maytansine.
# [12] = tested on: MCF7-tumor xenograft; assay: MCF7 xenograft mouse model; details: for Inhibition of MCF7 tumor growth (excised tumor weights): twice a week for 3 weeks
# Method: The treatment started on the 12th day when the MCF7-tumor size reached approximately 100 mm^3 (L×W×H). Two doses of MV-A (1.0 and 2.0 mg/kg), paclitaxel (5 mg/kg), and vehicle were administered via i.p. (intraperitoneal), i.v. (intravenous), or oral respectively, to the tumor-bearing mice twice a week for 3 weeks ([…]).
# Antitumor animal study. All animal studies were approved and performed according to Animal Care and Use Guidelines of the Animal Ethics Committee at Hong Kong Baptist University and performed following Animal Care and Use guidelines set by NIH (National Institute of Health, USA). BALB/c nude mice, SPF class, male or female, 5-6 weeks old, were purchased from Charles River Laboratories. Before the experiment, it is one week of acclimatization to SPF class laboratory conditions. MV-A is tested for its anticancer activity against HCT116 and MCF7 cancer cells using a number of nude mice (Balc/nu/nu, female) in comparison of paclitaxel and maytansine. HCT116 or MCF7 cancer cells are subcutaneously implanted with 5×10^6 cells in the rear flank of each mouse. Female mice receiving MCF-7 cells are implanted with an s.c. pellet of 17β-estradiol (0.72 mg/pellet) a few days prior to injection to induce tumors. […] The mice are divided into 5 groups for HCT116 cancer cells: one high dose (1.0 mg/kg: 10 mice) group of MV-A, one low dose (0.5 mg/kg: 10 mice) group of MV-A, one dose (5.0 mg/kg: 10 mice) of paclitaxel, one dose of maytansine (0.1 mg/kg) and one dose of vehicle (negative control: 10 mice). The mice are then divided into 4 groups for MCF7 cancer cells: one high dose (2.0 mg/kg: 10 mice) group of MV-A, one low dose (1.0 mg/kg: 10 mice) group of MV-A, one dose (5.0 mg/kg: 10 mice) of paclitaxel, and one dose of vehicle (negative control: 10 mice). Every other day administration via i.p. (intraperitoneal), i.v. (intravenous), or oral, respectively are scheduled for 21 days for the HCT116 groups. Twice a week injections administered via i.p. (intraperitoneal), i.v. (intravenous), or oral, respectively are scheduled for […] for the MCF7 groups. Weights of mice and tumor diameters are measured twice a week until the end of the experiment. The tumor size in mm^3 was calculated by the formula: tumor size=length×width×height (L×W×H).
# [13] = tested on: 3T3-L1 murine adipocytes; assay: 3T3-L1 fat accumulation (triglyceride) assay; assay type: cell-based; details: differentiated 3T3-L1 adipocytes, 7 days, read-out: Anti-obesity activity (fat accumulation) EC50
# Method: (§2) MV-A, MV-B, MV-C and MV-D are evaluated for their anti-obesity effects in 3T3-L1 murine adipocytes. 3T3-L1 cells are cultured in the presence of insulin to induce adipocyte differentiation.
# (§3) Pure compounds are evaluated against 3T3-L1 cell line for their potential anti-obesity activity. […] After the cells reach 100% confluence, the culture medium is changed to a differentiation DMEM medium containing 10% FCS, […], 0.5 mM 3-isobutyl-1-methylxanthine (IBMX), 90 U/mL penicillin, […] and 10 μg/mL insulin for induction of the adipocyte form of the 3T3-L1 cells. After 2 days, the differentiation medium is changed back to the normal DMEM medium and refreshed with the normal medium every 2 days. After incubation of additional 7 days, the cells are seeded in two sets of 96-well plates (about 10,000 cells per well). The test compounds in different concentrations are then added to the wells with 0.5% aqueous DMSO as control group. After incubation of 7 days, the differentiated 3T3-L1 adipocytes are treated with 2% Triton-X 100 ([…]) for 30 min at room temperature followed by sonication for 1 min. Fat accumulation is determined by measuring the liberated triglyceride using a Wato Triglyceride E-test Kit with the absorbance at 630/690 nm. The fat-accumulation rate is calculated as a percentage of the DMSO control. […] The cell viability of the differentiated 3T3-L1 adipocytes in another 96-well plate is treated with a Wako Cell Counting Kit-8 Test and measured with the absorbance at 450 nm. The cell viability is calculated as a percentage of the control.
# [14] = tested on: 3T3-L1 murine adipocytes; assay: 3T3-L1 adipocyte cell viability; assay type: cell-based; details: differentiated 3T3-L1 adipocytes
# Method: as §2, §3
# [15] = Body weight of mice after drug treatment; details: 1 mg/kg and 2 mg/kg
# [16] = tested on: prostate (LNCaP) carcinoma cell line; assay: cells; assay type: cell-based, human; details: Homo sapiens, 72 hours, read-out: Cytotoxic activity IC50, LNCaP
# Method: as §4
smiles,measurement,setting,value
CC(C)CC1NC(=O)C(C)N(C)C(=O)C(C)N(C)C(=O)C(C2C(C)C2C)NC(=O)C(CC(C)C)N(C)C(=O)C(C)N(C)C(=O)C(CC(C)C)NC1=O (stereo not drawn) [Compound 3] (cyclo([X3][NMeA][NMeA]LL[NMeA][NMeL]); configuration not given here),IC50,[1],12.5 nM
same,IC50,[2],51.8 nM
same,IC50,[3],26.6 nM
same,Reduction in activity in comparison with 1,[4]; compound with only one DMCPA residue versus 1,at least 100 times
same,IC50,[5],43.5 nM
CC(C)C[C@H]1NC(=O)[C@@H](C)N(C)C(=O)[C@H](C)N(C)C(=O)[C@H](C2[C@@H](C)[C@@H]2C)NC(=O)[C@H](CC(C)C)N(C)C(=O)[C@H](C)N(C)C(=O)[C@@H](C2[C@@H](C)[C@@H]2C)NC1=O (stereo partly drawn) [MV-A] (cyclo([NMeA][NMeL][X1][NMeA][dNMeA][dL][X2])),Inhibition (%),"[6]; A549-IP, 0.05 mg/kg",18.2%
same,Inhibition (%),"[6]; A549-IP, 0.1 mg/kg",56.6%
same,Inhibition (%),"[6]; A549-SC, 0.05 mg/kg",0%
same,Inhibition (%),"[6]; A549-SC, 0.1 mg/kg",36.4%
same,Inhibition (%),"[7]; HCT116-IP, 0.1 mg/kg",33.1%
same,Inhibition (%),"[7]; HCT116-IP, 0.2 mg/kg",53.3%
same,Inhibition (%),"[7]; HCT116-IP, 0.8 mg/kg",65.0%
same,Inhibition (%),"[7]; HCT116-SC, 0.1 mg/kg",0%
same,Inhibition (%),"[7]; HCT116-SC, 0.2 mg/kg",15.1%
same,Inhibition (%),"[7]; HCT116-SC, 0.8 mg/kg",12.7%
same,Inhibition (%),"[8]; MCF7-IP, 0.05 mg/kg",65.9%
same,Inhibition (%),"[8]; MCF7-IP, 0.1 mg/kg",76.8%
same,Inhibition (%),"[8]; MCF7-IP, 0.2 mg/kg",68.3%
same,Inhibition (%),"[8]; MCF7-IP, 0.4 mg/kg",66.7%
same,Inhibition (%),"[8]; MCF7-SC, 0.05 mg/kg",0%
same,Inhibition (%),"[8]; MCF7-SC, 0.1 mg/kg",0%
same,Inhibition (%),"[8]; MCF7-SC, 0.2 mg/kg",13.9%
same,Inhibition (%),"[8]; MCF7-SC, 0.4 mg/kg",56.0%
same,Inhibition (%),"[9]; A375-IP, 0.2 mg/kg",35.3%
same,Inhibition (%),"[9]; A375-IP, 0.4 mg/kg",67.4%
same,Inhibition (%),"[9]; A375-SC, 0.2 mg/kg",17.2%
same,Inhibition (%),"[9]; A375-SC, 0.4 mg/kg",27.8%
same,Inhibition (%),"[10]; Hela-IP, 0.2 mg/kg",45.8%
same,Inhibition (%),"[10]; Hela-IP, 0.4 mg/kg",82.7%
same,Inhibition (%),"[10]; Hela-SC, 0.2 mg/kg",23.2%
same,Inhibition (%),"[10]; Hela-SC, 0.4 mg/kg",52.8%
same,Inhibition of HCT116 tumor growth (excised tumor weights),[11]; 0.5 mg/kg (low dose),31.1%
same,Inhibition of HCT116 tumor growth (excised tumor weights),[11]; 1.0 mg/kg (high dose),52.8%
same,Weight loss of mice after the first two treatments,"[11]; HCT116 xenograft, 0.5 and 1.0 mg/kg groups",1 to 2 g
same,Inhibition of MCF7 tumor growth (excised tumor weights),[12]; 1.0 mg/kg (low dose),48.1%
same,Inhibition of MCF7 tumor growth (excised tumor weights),[12]; 2.0 mg/kg (high dose),72.6%
same,Weight loss of mice after the first two treatments,"[12]; MCF7 xenograft, 1.0 and 2.0 mg/kg groups",1 to 2 g
same,EC50,[13],0.3 nM
same,IC50,[14],12.9 nM
same,IC50,[4],0.05 to 1.5 nM
same,Mortality during the treatments,[15],No mice die
same,Toxicity observed from dissection of the mice,[15],No sign of toxicity
same,Drop of average weight of mice after the first two treatments,"[15]; intravenous, intraperitoneal or oral",1 to 2 g
CC(C)C[C@H]1NC(=O)[C@@H](C)N(C)C(=O)[C@H](C)N(C)C(=O)[C@H](C2[C@@H](C)[C@@H]2C)NC(=O)[C@H](CC(C)CO)N(C)C(=O)[C@H](C)N(C)C(=O)[C@@H](C2[C@@H](C)[C@@H]2C)NC1=O (stereo partly drawn) [MV-B],EC50,[13],2.6 nM
same,IC50,[14],83.7 nM
same,IC50,[4],0.7 to 9.1 nM
"CC(C)C[C@H]1NC(=O)[C@@H](C)N(C)C(=O)[C@H](C)N(C)C(=O)[C@H](C2[C@@H](C)[C@@H]2C)NC(=O)[C@H](CC(C)C)N(C)C(=O)[C@H](C)N(C)C(=O)[C@@H](CC(C)C)NC1=O (stereo partly drawn) [MV-C] (HELM PEPTIDE1{[meA].[meL].[C[C@@H]1C([C@H](N[*:1])C(=O)[*:2])[C@H]1C].[meA].[C[C@H](C(=O)[*:2])N(C)[*:1]].[dL].[dL]}$PEPTIDE1,PEPTIDE1,1:R1-7:R2$$$V2.0)",EC50,[13],38.9 nM
same,IC50,[14],689 nM
same,IC50,[4],12 to 60 nM
"COc1cc2cc(c1Cl)N(C)C(=O)C[C@H](OC(=O)[C@H](C)N(C)C(C)=O)[C@]1(C)O[C@H]1[C@H](C)[C@@H]1C[C@@](O)(NC(=O)O1)[C@H](OC)/C=C/C=C(\C)C2 [Maytansine, reference compound]",IC50,[1]; Homo sapiens,0.16 nM
same,"Cytotoxic activity IC90, KB",[1],~5 nM
same,IC50,[16],0.56 nM
same,IC50,[2]; Homo sapiens,3.18 nM
same,IC90,[2]; Homo sapiens,> 40 nM
same,IC50,[3]; Homo sapiens,0.69 nM
same,IC90,[3]; Homo sapiens,> 20 nM
same,Mortality of tumor-bearing mice,"[11]; 0.1 mg/kg, after the first two treatments",All mice died
"CC[C@]1(O)C[C@@H]2CN(CCc3c([nH]c4ccccc34)[C@@](C(=O)OC)(c3cc4c(cc3OC)N(C)[C@H]3[C@@](O)(C(=O)OC)[C@H](OC(C)=O)[C@]5(CC)C=CCN6CC[C@]43[C@@H]65)C2)C1 [Vinblastine, reference compound]","Cytotoxic activity IC90, KB",[1],10.1 nM
same,IC90,[2]; Homo sapiens,> 40 nM
same,IC90,[3]; Homo sapiens,> 50 nM
